Test system: purified polypeptide (carbonyl reductase)
Assay: Substrate specificity of polypeptide (NADPH-dependent reduction of carbonyl compounds)
Type: biochemical, Candida magnoliae strain NBRC0661
Settings: 1 mM substrate, 0.25 mM NADPH, pH 6.5, 30° C.; relative to activity to 3-oxo-3-phenylpropanenitrile

Row | SMILES | Relative activity [%]
1 | CCOC(=O)CC(=O)CCl [ethyl 4-chloroacetoacetate] | 8547
2 | CCC(C)=O [2-butanone] | 181
3 | CC(=O)CC(C)C [4-methyl-2-pentanone] | 60
4 | CC(=O)c1cccnc1 [3-acetylpyridine] | 2107
5 | CCC(=O)c1ccccc1 [propiophenone] | 3010
6 | CC(=O)CCc1ccccc1 [benzylacetone] | 241
7 | CCOC(=O)CC(=O)c1ccccc1 [ethyl benzoylacetate] | 7704
8 | CC(=O)C1CC1 [cyclopropyl methyl ketone] | 181
9 | CC(=O)CC(=O)OCc1ccccc1 [benzyl acetoacetate] | 4936
10 | O=C(CO)c1ccccc1 [2-hydroxyacetophenone] | 1806
11 | N#CCC(=O)c1ccccc1 [3-oxo-3-phenylpropanenitrile] | 100
12 | CC(=O)c1ccccc1 [acetophenone] | 1023
13 | CC(=O)c1cccc([N+](=O)[O-])c1 [m-nitroacetophenone] | 5056
14 | CC(=O)c1ccc(Cl)cc1 [p-chloroacetophenone] | 2347
15 | CCC(=O)Cc1ccccc1 [1-phenyl-2-butanone] | 1144
16 | CCCCC(C)=O [2-hexanone] | 602
17 | CC(=O)c1ccc(C)cc1 [p-methylacetophenone] | 542
18 | CCCCCC(C)=O [2-heptanone] | 782
19 | CC(=O)CCO [4-hydroxy-2-butanone] | 301
20 | O=C(O)CC(=O)C(=O)O [oxalacetic acid] | 421
21 | CC(=O)c1ccncc1 [4-acetylpyridine] | 15710
22 | CCOC(=O)CC(C)=O [ethyl acetoacetate] | 903
23 | CCC(=O)C(=O)O [2-keto-n-butyric acid] | 1866
24 | COC(=O)C(C)=O [methyl pyruvate] | 9450
25 | CC(=O)c1ccccn1 [2-acetylpyridine] | 1926
26 | CC(=O)CO [hydroxyacetone] | 361
27 | CC(=O)c1ccc(F)cc1 [p-fluoroacetophenone] | 722
28 | COc1ccc(C(C)=O)cc1OC [3,4-dimethoxyacetophenone] | 2889
29 | O=C(CCl)c1cccc(Cl)c1 [2-chloro-1-(3′-chlorophenyl)ethanone] | 10473
